One block for each molecule: values may come before it.
Tests used:
Sus scrofa = species: Sus scrofa; experiment: Inhibition of porcine pancreatic lipase type 2 assessed as residual enzyme activity using tributyrin as substrate preincubated for 30 mins followed by substrate addition measured for 5 mins
[1] = molecular target: T1, Pancreatic triacylglycerol lipase (Sus scrofa, UniProt P00591); experiment: Inhibition of porcine pancreatic lipase using p-nitrophenyl butyrate as substrate preincubated for 5 mins followed by substrate addition measured after 5 mins by spectrophotometric analysis
T1 sequence (P00591 whole entry): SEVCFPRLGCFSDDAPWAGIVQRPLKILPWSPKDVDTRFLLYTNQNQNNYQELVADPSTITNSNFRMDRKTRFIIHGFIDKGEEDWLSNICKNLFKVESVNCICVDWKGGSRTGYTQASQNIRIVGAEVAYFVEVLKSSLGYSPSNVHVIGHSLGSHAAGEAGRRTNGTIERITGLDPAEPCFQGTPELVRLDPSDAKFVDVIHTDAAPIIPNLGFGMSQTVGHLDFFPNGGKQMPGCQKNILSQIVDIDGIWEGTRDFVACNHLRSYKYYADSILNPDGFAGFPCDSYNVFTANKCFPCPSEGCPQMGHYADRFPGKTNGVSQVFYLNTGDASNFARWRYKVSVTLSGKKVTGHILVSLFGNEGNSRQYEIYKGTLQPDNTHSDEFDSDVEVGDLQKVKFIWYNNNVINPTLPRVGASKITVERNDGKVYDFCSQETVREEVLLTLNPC

[2] = molecular target: T1, Pancreatic triacylglycerol lipase; experiment: Binding affinity to porcine pancreatic lipase using p-nitrophenyl butyrate as substrate by dixon plot analysis
[3] = compound: O=C1S/C(=C\c2cn(-c3ccccc3)nc2-c2ccc(Cl)cc2)C(=O)N1Cc1ccc([N+](=O)[O-])cc1; experiment: Reversible competitive inhibition of porcine pancreatic lipase assessed as Vmax for substrate at 2.5 uM in presence of varying levels of p-nitophenyl butyrate by double reciprocal Lineweaver-burk plot analysis (reference value: 0.0545 microM/min); details: Sus scrofa
[4] = compound: O=C1S/C(=C\c2cn(-c3ccccc3)nc2-c2ccc(Cl)cc2)C(=O)N1Cc1ccc([N+](=O)[O-])cc1; experiment: Reversible competitive inhibition of porcine pancreatic lipase assessed as Vmax for substrate at 10 uM in presence of varying levels of p-nitophenyl butyrate by double reciprocal Lineweaver-burk plot analysis (reference value: 0.0545 microM/min); details: Sus scrofa
[5] = compound: O=C1S/C(=C\c2cn(-c3ccccc3)nc2-c2ccc(Cl)cc2)C(=O)N1Cc1ccc([N+](=O)[O-])cc1; experiment: Reversible competitive inhibition of porcine pancreatic lipase assessed as Vmax for substrate at 5 uM in presence of varying levels of p-nitophenyl butyrate by double reciprocal Lineweaver-burk plot analysis (reference value: 0.0545 microM/min); details: Sus scrofa
[6] = compound: O=C1S/C(=C\c2cn(-c3ccccc3)nc2-c2ccc(Cl)cc2)C(=O)N1Cc1ccc([N+](=O)[O-])cc1; experiment: Reversible competitive inhibition of porcine pancreatic lipase assessed as Km for substrate at 5 uM in presence of varying levels of p-nitophenyl butyrate by double reciprocal Lineweaver-burk plot analysis (reference value: 69.32 microM); details: Sus scrofa
[7] = compound: O=C1S/C(=C\c2cn(-c3ccccc3)nc2-c2ccc(Cl)cc2)C(=O)N1Cc1ccc([N+](=O)[O-])cc1; experiment: Reversible competitive inhibition of porcine pancreatic lipase assessed as Km for substrate at 2.5 uM in presence of varying levels of p-nitophenyl butyrate by double reciprocal Lineweaver-burk plot analysis (reference value: 69.32 microM); details: Sus scrofa
[8] = compound: O=C1S/C(=C\c2cn(-c3ccccc3)nc2-c2ccc(Cl)cc2)C(=O)N1Cc1ccc([N+](=O)[O-])cc1; experiment: Reversible competitive inhibition of porcine pancreatic lipase assessed as Km for substrate at 10 uM in presence of varying levels of p-nitophenyl butyrate by double reciprocal Lineweaver-burk plot analysis (reference value: 69.32 microM); details: Sus scrofa

XI50 (Sus scrofa): 10 | Ki [2]: 14.4 µM | IC50 [1]: 4.81 µM
Molecule: O=C1S/C(=C\c2cn(-c3ccccc3)nc2-c2ccc(Cl)cc2)C(=O)N1Cc1ccc([N+](=O)[O-])cc1

XI50 (Sus scrofa): 19.3 | IC50 [1]: 9.87 µM
Molecule: Cc1ccc(-c2nn(-c3ccccc3)cc2/C=C2\SC(=O)N(Cc3ccc([N+](=O)[O-])cc3)C2=O)cc1

XI50 (Sus scrofa): 18.1 | IC50 [1]: 9.4 µM
Molecule: COc1ccc(-c2nn(-c3ccccc3)cc2/C=C2\SC(=O)N(Cc3ccc([N+](=O)[O-])cc3)C2=O)cc1

XI50 (Sus scrofa): 18.7 | IC50 [1]: 8.44 µM
Molecule: O=C1S/C(=C\c2cn(-c3ccccc3)nc2-c2ccc([N+](=O)[O-])cc2)C(=O)N1Cc1ccc([N+](=O)[O-])cc1

XI50 (Sus scrofa): 19.3 | IC50 [1]: 10.3 µM
Molecule: O=C1NC(=O)/C(=C/c2cn(-c3ccccc3)nc2-c2ccc(Cl)cc2)S1

XI50 (Sus scrofa): 39.5 | IC50 [1]: 17.3 µM
Molecule: O=C1NC(=O)/C(=C/c2cn(-c3ccccc3)nc2-c2ccc([N+](=O)[O-])cc2)S1

XI50 (Sus scrofa): 21.8 | IC50 [1]: 12.5 µM
Molecule: O=C1S/C(=C\c2cn(-c3ccccc3)nc2-c2ccccc2)C(=O)N1Cc1ccc([N+](=O)[O-])cc1

XI50 (Sus scrofa): 13 | IC50 [1]: 5.42 µM
Molecule: O=C1S/C(=C\c2cn(-c3ccccc3)nc2-c2ccc(F)cc2)C(=O)N1Cc1ccc([N+](=O)[O-])cc1

Further lines, the molecule ahead of its results:

Molecule: O=C1NC(=O)/C(=C/c2cn(-c3ccccc3)nc2-c2ccccc2)S1
XI50 (Sus scrofa): 65.1 | IC50 [1]: 18.8 µM

Molecule: O=C1NC(=O)/C(=C/c2cn(-c3ccccc3)nc2-c2ccc(F)cc2)S1
XI50 (Sus scrofa): 25.4 | IC50 [1]: 12.9 µM

Molecule: Cc1ccc(-c2nn(-c3ccccc3)cc2/C=C2\SC(=O)NC2=O)cc1
XI50 (Sus scrofa): 27.2 | IC50 [1]: 15.1 µM

Molecule: CCCCCCCCCCC[C@@H](C[C@@H]1OC(=O)[C@H]1CCCCCC)OC(=O)[C@H](CC(C)C)NC=O
XI50 (Sus scrofa): 3.72

Molecule: COc1ccc(-c2nn(-c3ccccc3)cc2/C=C2\SC(=O)NC2=O)cc1
XI50 (Sus scrofa): 24.4 | IC50 [1]: 13 µM

B1: Pancreatic triacylglycerol lipase (Sus scrofa), P00591 (protein)
chain: T1 sequence (P00591 whole entry)
Vmax [3]: 0.0565 µM/min | Vmax [4]: 0.0566 µM/min | Vmax [5]: 0.0557 µM/min | Km [6]: 145 µM | Km [7]: 125 µM | Km [8]: 165 µM

Reference: ChEMBL document CHEMBL4052758, “Design, synthesis, biological evaluation and molecular modelling studies of novel diaryl substituted pyrazolyl thiazolidinediones as potent pancreatic lipase inhibitors” (Bioorg Med Chem Lett, 2017)
